{
  "source": "paper PMC10473160",
  "about": "(Cancer Research Communications, 2023)",
  "key": {"NCI-H1703 cells [1]": {"system": "NCI-H1703 cells", "settings": "NCI-H1703, Bliss, 6 days of combination treatment", "quoted_text": "(§1) Cells were seeded in 384-well plates at a density of 300–500 cells per well (depending upon the doubling time for each cell line) with 40 μL of media per well using a multidrop combi cell dispenser (Thermo Fisher Scientific). The cells were incubated at room temperature for 30 minutes to minimize edge effects. The next day, the cells were treated with drugs of interest at various concentrations using a D300e digital dispenser (Tecan). Following treatment, the cells were cultured at 37°C for 6 days. On day 6 after treatment initiation, the plates and Cell Titer Glo (CTG; Promega; PRG9243) were incubated at room temperature (protected from light) for 1 hour to reach equilibrium. After incubation, half of the CTG volume was added to one volume of cell culture medium in each well. The plates were then shaken for 30 seconds to induce cell lysis. The cells were then incubated at room temperature for 12 minutes protected from light to stabilize the luminescence signal. The luminescent cell viability was measured using an EnVision plate reader (PerkinElmer). For cell viability, the data were analyzed using Excel (Microsoft) and GraphPad Prism (RRID:SCR_002798; Dotmatics). […] For synergy, the data were analyzed using Excel, SynergyFinder ([28]), and Combenefit ([29]). […]"}, "NCI-H1703 cells [2]": {"system": "NCI-H1703 cells", "assay": "Cell Titer Glo cellular cytotoxicity assay, NCI-H1703", "format": "cell-based", "settings": "Homo sapiens, NCI-H1703, 144 h; H1703, 6 days, representative experiment, unit not readable in the picture; read-out: IC50 (Fig. 3B)", "quoted_text": "as §1"}, "NCI-H1703 cells [3]": {"system": "NCI-H1703 cells", "assay": "High-content imaging assay (γH2AX, phospho-histone H3, cleaved caspase 3)", "format": "cell-based, human", "settings": "single-agent treatment, 72 hours", "method": "Cells were seeded in 96-well plates at a density of 10,000 cells per well with 100 μL of media per well. The cells were cultured overnight. The next day, the cells were treated with doxorubicin (0.006 μmol/L), ZL-2201 (0.1, 0.3, 0.5, 1, and 3.6 μmol/L), and a combination of doxorubicin and ZL-2201 for the indicated times. The cells were washed in PBS and fixed by adding Cytofix/Perm buffer (BD; 554714) at room temperature for 20 minutes. Cells were washed with Perm wash buffer and blocked with Perm wash buffer and 3% FBS at room temperature for 1 hour. The cells were then incubated with primary antibodies against γH2AX-Ser139 (RRID:AB_309864; Millipore; 05-636), pPH3 (Ser10; 6G3; RRID:AB_331748; Cell Signaling Technology; 9706) and cleaved caspase 3 (Asp175; 5A1E; RRID:AB_2070042; Cell Signaling Technology; 9664) overnight at 4°C. Cells were washed the following day and incubated with secondary antibodies (Alexa Fluor 488; Invitrogen; A32723 or A32731 and Alexa Fluor 647; A32733) at room temperature for 45 minutes in the dark. The cells were washed and stained with Hoescht (Thermo Fisher Scientific; H3570) at room temperature for 15 minutes in the dark. Images were obtained and quantified using the ImageXpress Micro Confocal High-Content Imaging System (Molecular Devices). A total of 16 fields were obtained per image for each timepoint and treatment groups."}, "A549 cells": {"system": "A549 cells", "assay": "CTG combination synergy (Bliss) with ZL-2201, A549", "format": "cell-based, human", "settings": "6 days of combination treatment", "quoted_text": "Cells were seeded in 384-well plates at a density of 300–500 cells per well (depending upon the doubling time for each cell line) with 40 μL of media per well using a multidrop combi cell dispenser (Thermo Fisher Scientific). The cells were incubated at room temperature for 30 minutes to minimize edge effects. The next day, the cells were treated with drugs of interest at various concentrations using a D300e digital dispenser (Tecan). Following treatment, the cells were cultured at 37°C for 6 days. On day 6 after treatment initiation, the plates and Cell Titer Glo (CTG; Promega; PRG9243) were incubated at room temperature (protected from light) for 1 hour to reach equilibrium. After incubation, half of the CTG volume was added to one volume of cell culture medium in each well. The plates were then shaken for 30 seconds to induce cell lysis. […] The luminescent cell viability was measured using an EnVision plate reader (PerkinElmer). For cell viability, the data were analyzed using Excel (Microsoft) and GraphPad Prism (RRID:SCR_002798; Dotmatics). The data were first transformed to a log scale on the X-axis, then transformed values were normalized, and finally, normalized values were fitted using a nonlinear regression curve fit. For synergy, the data were analyzed using Excel, SynergyFinder ([28]), and Combenefit ([29]). […]"}},
  "data": [
    {"compound": "COc1cccc2c1C(=O)c1c(O)c3c(c(O)c1C2=O)C[C@@](O)(C(=O)CO)C[C@@H]3O[C@H]1C[C@H](N)[C@H](O)[C@H](C)O1", "note": "[doxorubicin]", "values": [
      {"measurement": "synergy score in combination with ZL-2201", "setting": "NCI-H1703 cells [1]", "result": "> 30"},
      {"measurement": "IC50", "setting": "NCI-H1703 cells [2]", "result": 4, "unit": "nM"},
      {"measurement": "cleaved caspase 3 (apoptosis) level", "setting": "NCI-H1703 cells [3]", "result": "did not alter"},
      {"measurement": "phospho-histone H3 (mitotic index) level", "setting": "NCI-H1703 cells [3]", "result": "did not alter"},
      {"measurement": "synergy score in combination with ZL-2201", "setting": "A549 cells", "result": "> 30"}
    ]}
  ]
}
